Legend:
Type in all cases: in vivo, rat
[1] = Body weight, food intake and water intake of Pioglitazone-treated ZDF rats; conditions: ZDF rats group_low, group_mild and group_full; chronic treatment (7 weeks), 10 mg/kg/d food-admix
Experimental: ZDF and ZL rats were ordered at the age of 5 W. After arrival and following 1 week of adaptation, 1 ml of blood was collected retro-orbitally after a short narcosis (isoflurane) in 6 W-old rats. […] A group of 10 ZL rats was formed and followed as a control group along the study duration (FIG. 3). Three groups of ZDF rats receive either vehicle (untreated) or Pioglitazone (treated) as food Admix. In each untreated/treated group of ZDF rats, one is fed a high fat diet during 11 weeks (group_full), during 4 weeks (group_mild) or during 2 weeks (group_low). Treatment was administered orally and prepared as food-admix. This mode of administration was preferred over oral gavage to reduce stress to the animals, avoid dosing errors and minimize handling. Pioglitazone (sufficient for 90 kg food) was dissolved in 18 liters of water. For the three treatment groups of 10 rats each, 6 liters of solution was combined with 30 kg of the diabetogenic diet (KLIBA 2437 with 7% of fat) or 12 liters were mixed with 60 Kg of the chow diet (Kliba 3436). The food was carefully dried at a temperature not exceeding 40° C. and then pelleted. […] The graphs and tables present the data according to expected daily dose. […] Body weight and food consumption were recorded with an on-line data acquisition system ([…]) using electronic balances.

ZDF rats [2] = assay: Oral glucose tolerance test (OGTT) with fasting parameters and HOMA in Pioglitazone-treated ZDF rats; conditions: for HOMA (insulin resistance index) / fasting insulin levels: after 6 weeks of treatment
Experimental: ZDF and ZL rats were ordered at the age of 5 W. After arrival and following 1 week of adaptation, 1 ml of blood was collected retro-orbitally after a short narcosis (isoflurane) in 6 W-old rats. […] A group of 10 ZL rats was formed and followed as a control group along the study duration (FIG. 3). Three groups of ZDF rats receive either vehicle (untreated) or Pioglitazone (treated) as food Admix. In each untreated/treated group of ZDF rats, one is fed a high fat diet during 11 weeks (group_full), during 4 weeks (group_mild) or during 2 weeks (group_low). Treatment was administered orally and prepared as food-admix. This mode of administration was preferred over oral gavage to reduce stress to the animals, avoid dosing errors and minimize handling. Pioglitazone (sufficient for 90 kg food) was dissolved in 18 liters of water. For the three treatment groups of 10 rats each, 6 liters of solution was combined with 30 kg of the diabetogenic diet (KLIBA 2437 with 7% of fat) or 12 liters were mixed with 60 Kg of the chow diet (Kliba 3436). The food was carefully dried at a temperature not exceeding 40° C. and then pelleted. […] The graphs and tables present the data according to expected daily dose. […] Blood was then collected in conscious animals (tail vein) for baseline glucose and insulin measurements. […] Studying the evolution of blood glucose concentration along time after a load of glucose will give information about the ability of the organism to use glucose. Using the trapezoidal rule, glucose tolerance was calculated as area under the curve (AUC) of glucose concentration during 120 min and the change from baseline was calculated (delta AUC). HOMA index is also assessed during the OGTT by considering fasting insulin and fasting blood glucose (FBG) levels. HOMA: [FBG (mM)*(Fasting Insulin (μU))/22.5]. HOMA-index translates peripheral insulin resistance. Measurement of insulin was performed using Mercodia Rat Insulin ELISA kit.

ZDF rats [3] = assay: Intervention treatment with Pioglitazone in ZDF rats: post-prandial blood and plasma parameters; conditions: for average plasma TG level: at the end of treatment
Experimental: ZDF and ZL rats were ordered at the age of 5 W. After arrival and following 1 week of adaptation, 1 ml of blood was collected retro-orbitally after a short narcosis (isoflurane) in 6 W-old rats. […] A group of 10 ZL rats was formed and followed as a control group along the study duration (FIG. 3). Three groups of ZDF rats receive either vehicle (untreated) or Pioglitazone (treated) as food Admix. In each untreated/treated group of ZDF rats, one is fed a high fat diet during 11 weeks (group_full), during 4 weeks (group_mild) or during 2 weeks (group_low). Treatment was administered orally and prepared as food-admix. This mode of administration was preferred over oral gavage to reduce stress to the animals, avoid dosing errors and minimize handling. Pioglitazone (sufficient for 90 kg food) was dissolved in 18 liters of water. For the three treatment groups of 10 rats each, 6 liters of solution was combined with 30 kg of the diabetogenic diet (KLIBA 2437 with 7% of fat) or 12 liters were mixed with 60 Kg of the chow diet (Kliba 3436). The food was carefully dried at a temperature not exceeding 40° C. and then pelleted. […] The graphs and tables present the data according to expected daily dose. […] Blood sampling was always performed in the morning (9-11 am) 2-to-5 hours after feeding session and 2 h after last oral dosing (food was removed at 7:00 am). Blood (≈200 μl) was harvested retro-orbitally from slightly anesthetized rats (isoflurane) into tubes containing EDTA and kept on ice bed until centrifugation (6000 RPM for 20 minutes at 4° C.). […] Main plasma biochemical parameters (glucose(Gluco-quant, e.g. […] Quantification of HbA1c (%) was performed in whole blood, using an immuno-turbidimetric assay (Tina-quant, e.g. 11822039 from Roche Molecular Diagnostics). Glycosylated haemoglobin (HbA1c) is formed by the non-enzymatic covalent attachment of glucose to normal haemoglobin (HbA). […] HbA1c is a predictor of diabetic complications and interventions that reduce HbA1c correspondingly reduce the risk of complications (UKPDS, 1998). […] Commercially available ELISA kits (LINCO®) were used to quantify plasma concentration of insulin and adiponectin. Adiponectin is an adipokine which is […] and fasting plasma insulin concentration (Goldstein, 2002). Adiponectin plasma concentrations are decreased in […] patients and despite the fact that it is produced by adipocytes, as an individual becomes more obese, the adiponectine is decreased and insulin resistance increases ([…] et al., 1999).

For `CCc1ccc(CCOc2ccc(CC3SC(=O)NC3=O)cc2)nc1.Cl` (racemic) [Pioglitazone, (±)-5-[[4-[2-(5-ethyl-2-pyridinyl)ethoxy]phenyl]methyl]-2,4-], the “increase in BW versus vehicle” value [1] was “≈ 30%”, the “improvement of glucose tolerance (AUC) compared to vehicle” value (ZDF rats [2]; group_full, OGTT after 6 weeks of treatment) was 31% and the “HOMA (insulin resistance index)” value (ZDF rats [2]; group_full) was 14.1±2.7. For the same compound, the fasting insulin levels (ZDF rats [2]; group_full) was 2.0 ± 0.4 ng/mL, the FBG (ZDF rats [2]; group_full, after 7 weeks of treatment) was 6.7 ± 0.9 mM and the “AUC reduced compared to vehicle” value (ZDF rats [2]; group_low, OGTT after 6 weeks of treatment) was 36%. For the same compound, the “glucose excursion AUC” value (ZDF rats [2]; group_low, OGTT after 6 weeks of treatment, ZL 779±15) was 1000±48, the fasting insulin levels (ZDF rats [2]; group_low) was 1.7 ng/mL and the “HOMA (insulin resistance index)” value (ZDF rats [2]; group_low, ZL 2.0±0.1) was 9.4±0.8. The FBG (ZDF rats [2]; group_low, vehicle 6.9±0.4, ZL 4.3±0.0) was 5.1 ± 0.1 mM, the “improvement of glucose tolerance (AUC) compared to vehicle” value (ZDF rats [2]; group_mild, OGTT after 6 weeks of treatment) was 29% and the “HOMA (insulin resistance index)” value (ZDF rats [2]; group_mild) was 10.9±1.9. The fasting insulin levels (ZDF rats [2]; group_mild) was 1.6 ± 0.3 ng/mL, the FBG (ZDF rats [2]; group_mild, after 7 weeks of treatment) was 6.6 ± 1.3 mM and the “plasma total cholesterol levels” value (ZDF rats [3]; any of the treatment groups) was “did not change”. The “reduction of plasma triglyceride levels compared to vehicle” value (ZDF rats [3]; group_full (fully diabetic ZDF rats)) was 69.5±5.2%, the HbA1C (ZDF rats [3]; group_full ZDF rats, 10 mg/kg) was “significant reduction” and the blood glucose levels (ZDF rats [3]; group_full ZDF rats, apparent after 2 weeks, partially maintained, 10 mg/kg) was “strongly reduced”. The hyperinsulinemia (ZDF rats [3]; group_full ZDF rats, at the beginning of treatment, effect gone after 5 weeks) was “significantly reduced”, the “average plasma TG level” value (ZDF rats [3]; group_full) was 2.8 ± 0.5 mM and the “plasma TG levels” value (ZDF rats [3]; group_full, compared with ZL 1.1±0.1) was 2.9 ± 0.6 mM. For the same compound, the “plasma NEFA levels” value (ZDF rats [3]; group_full, data not shown) was “moderate improvement”, the hypertriglyceridemia (ZDF rats [3]; group_low) was “almost completely and immediately normalized” and the “development of hyperglycaemia and increase in HbA1c” value (ZDF rats [3]; group_low (moderately diabetic ZDF rats), values similar to untreated ZL rats) was “fully prevented”. The “average plasma TG level” value (ZDF rats [3]; group_low) was 1.6 ± 0.1 mM, the insulin levels (ZDF rats [3]; group_low, end of the 7 week treatment period, ZL 0.8±0.1) was 2.1 ± 0.2 ng/mL and the hyperinsulinemia (ZDF rats [3]; group_low, starting at week 2 of treatment, maintained until end of study) was “strongly reversed”.

Source: patent US8187572B2, “Diabetogenic rat model” (Hoffmann-La Roche Inc., priority 2005, dated 2012)
